Test results reported in the CheMixHub ionic liquid set.

Experiment: xn = mol fraction of the nth substance listed

CCOS(=O)(=O)[O-].CC[n+]1ccn(C)c1 + O
Conditions | electrical conductivity [S/m] | viscosity [mPa·s]
283.15 K, 101 kPa, x2 = 0.1966 | – | 136.9
283.15 K, 101 kPa, x2 = 0.6124 | – | 32.65
288.15 K, 100 kPa, x1 = 0.0005131 | – | 1.163
288.15 K, 100 kPa, x1 = 0.0008362 | – | 1.177
288.15 K, 100 kPa, x1 = 0.001227 | – | 1.193
288.15 K, 100 kPa, x1 = 0.002025 | – | 1.227
288.15 K, 100 kPa, x1 = 0.002516 | – | 1.25
288.15 K, 100 kPa, x1 = 0.003482 | – | 1.292
288.15 K, 100 kPa, x1 = 0.00456 | – | 1.342
288.15 K, 100 kPa, x1 = 0.006613 | – | 1.426
288.15 K, 100 kPa, x1 = 0.008007 | – | 1.491
288.15 K, 100 kPa, x1 = 0.009969 | – | 1.577
288.15 K, 100 kPa, x1 = 0.01406 | – | 1.777
288.15 K, 100 kPa, x1 = 0.0162 | – | 1.889
293.15 K, 100 kPa, x1 = 0.0005131 | – | 1.012
293.15 K, 100 kPa, x1 = 0.0008362 | – | 1.024
293.15 K, 100 kPa, x1 = 0.002516 | – | 1.092
293.15 K, 100 kPa, x1 = 0.003482 | – | 1.129
293.15 K, 100 kPa, x1 = 0.00456 | – | 1.171
293.15 K, 100 kPa, x1 = 0.006613 | – | 1.247
293.15 K, 100 kPa, x1 = 0.008007 | – | 1.295
293.15 K, 100 kPa, x1 = 0.009969 | – | 1.365
293.15 K, 100 kPa, x1 = 0.01406 | – | 1.508
293.15 K, 100 kPa, x1 = 0.0162 | – | 1.597
293.15 K, 101 kPa, x2 = 0.0023 | – | 133.9
293.15 K, 101 kPa, x2 = 0.1225 | – | 99.1
298.15 K, 100 kPa, x1 = 0.0005131 | – | 0.9026
298.15 K, 100 kPa, x1 = 0.0008362 | – | 0.9136
298.15 K, 100 kPa, x1 = 0.001227 | – | 0.929
298.15 K, 100 kPa, x1 = 0.002025 | – | 0.9545
298.15 K, 100 kPa, x1 = 0.002516 | – | 0.9707
298.15 K, 100 kPa, x1 = 0.003482 | – | 1.004
298.15 K, 100 kPa, x1 = 0.00456 | – | 1.039
298.15 K, 100 kPa, x1 = 0.006613 | – | 1.1
298.15 K, 100 kPa, x1 = 0.008007 | – | 1.141
298.15 K, 100 kPa, x1 = 0.009969 | – | 1.201
298.15 K, 100 kPa, x1 = 0.01406 | – | 1.322
298.15 K, 100 kPa, x1 = 0.0162 | – | 1.392
298.15 K, 101 kPa, x1 = 0.003 | 0.74 | –
298.15 K, 101 kPa, x1 = 0.047 | 4 | –
298.15 K, 101 kPa, x2 = 0.1608 | – | 70
298.15 K, 101.3 kPa, x1 = 0.01871 | 3.26 | –
298.15 K, 101.3 kPa, x2 = 0 | 0.398 | –
298.15 K, 101.3 kPa, x2 = 0.8489 | 3.85 | –
298.15 K, 101.3 kPa, x2 = 0.9291 | 4.45 | –
298.15 K, 101.3 kPa, x2 = 0.9684 | 3.95 | –
298.15 K, 101.3 kPa, x2 = 0.9752 | 3.66 | –
303.15 K, 100 kPa, x1 = 0.0005131 | – | 0.8072
303.15 K, 100 kPa, x1 = 0.0008362 | – | 0.8175
303.15 K, 100 kPa, x1 = 0.001227 | – | 0.8288
303.15 K, 100 kPa, x1 = 0.002025 | – | 0.8498
303.15 K, 100 kPa, x1 = 0.002516 | – | 0.8628
303.15 K, 100 kPa, x1 = 0.003482 | – | 0.8878
303.15 K, 100 kPa, x1 = 0.00456 | – | 0.9163
303.15 K, 100 kPa, x1 = 0.006613 | – | 0.9752
303.15 K, 100 kPa, x1 = 0.008007 | – | 1.01
303.15 K, 100 kPa, x1 = 0.01406 | – | 1.156
308.15 K, 100 kPa, x1 = 0.0005131 | – | 0.7285
308.15 K, 100 kPa, x1 = 0.0008362 | – | 0.7368
308.15 K, 100 kPa, x1 = 0.001227 | – | 0.7453
308.15 K, 100 kPa, x1 = 0.002025 | – | 0.7648
308.15 K, 100 kPa, x1 = 0.002516 | – | 0.774
308.15 K, 100 kPa, x1 = 0.003482 | – | 0.7947
308.15 K, 100 kPa, x1 = 0.00456 | – | 0.8202
308.15 K, 100 kPa, x1 = 0.006613 | – | 0.8682
308.15 K, 100 kPa, x1 = 0.008007 | – | 0.8953
308.15 K, 100 kPa, x1 = 0.009969 | – | 0.9332
308.15 K, 100 kPa, x1 = 0.01406 | – | 1.02
308.15 K, 100 kPa, x1 = 0.0162 | – | 1.066
313.15 K, 100 kPa, x1 = 0.0005131 | – | 0.6616
313.15 K, 100 kPa, x1 = 0.0008362 | – | 0.669
313.15 K, 100 kPa, x1 = 0.001227 | – | 0.6761
313.15 K, 100 kPa, x1 = 0.002025 | – | 0.6922
313.15 K, 100 kPa, x1 = 0.002516 | – | 0.7008
313.15 K, 100 kPa, x1 = 0.003482 | – | 0.7189
313.15 K, 100 kPa, x1 = 0.00456 | – | 0.7368
313.15 K, 100 kPa, x1 = 0.006613 | – | 0.7779
313.15 K, 100 kPa, x1 = 0.008007 | – | 0.8031
313.15 K, 100 kPa, x1 = 0.009969 | – | 0.8366
313.15 K, 100 kPa, x1 = 0.01406 | – | 0.9075
313.15 K, 100 kPa, x1 = 0.0162 | – | 0.9429
313.15 K, 101 kPa, x1 = 0.003 | 0.97 | –
313.15 K, 101 kPa, x1 = 0.008 | 2.5 | –
313.15 K, 101 kPa, x1 = 0.013 | 3.4 | –
313.15 K, 101 kPa, x1 = 0.019 | 3.9 | –
313.15 K, 101 kPa, x1 = 0.151 | 4.7 | –
313.15 K, 101 kPa, x1 = 0.642 | 1.4 | –
318.15 K, 100 kPa, x1 = 0.0005131 | – | 0.6014
318.15 K, 100 kPa, x1 = 0.0008362 | – | 0.6088
318.15 K, 100 kPa, x1 = 0.001227 | – | 0.6154
318.15 K, 100 kPa, x1 = 0.002025 | – | 0.6285
318.15 K, 100 kPa, x1 = 0.002516 | – | 0.6341
318.15 K, 100 kPa, x1 = 0.003482 | – | 0.6498
318.15 K, 100 kPa, x1 = 0.00456 | – | 0.6693
318.15 K, 100 kPa, x1 = 0.006613 | – | 0.6989
318.15 K, 100 kPa, x1 = 0.008007 | – | 0.7189
318.15 K, 100 kPa, x1 = 0.009969 | – | 0.7489
318.15 K, 100 kPa, x1 = 0.01406 | – | 0.8092
318.15 K, 100 kPa, x1 = 0.0162 | – | 0.8249
323.15 K, 100 kPa, x1 = 0.0005131 | – | 0.5543
323.15 K, 100 kPa, x1 = 0.0008362 | – | 0.5575
323.15 K, 100 kPa, x1 = 0.001227 | – | 0.5629
323.15 K, 100 kPa, x1 = 0.002025 | – | 0.5726
323.15 K, 100 kPa, x1 = 0.002516 | – | 0.5798
323.15 K, 100 kPa, x1 = 0.003482 | – | 0.592
323.15 K, 100 kPa, x1 = 0.00456 | – | 0.6071
323.15 K, 100 kPa, x1 = 0.006613 | – | 0.6309
323.15 K, 100 kPa, x1 = 0.008007 | – | 0.6496
323.15 K, 100 kPa, x1 = 0.009969 | – | 0.672
323.15 K, 100 kPa, x1 = 0.01406 | – | 0.7192
323.15 K, 100 kPa, x1 = 0.0162 | – | 0.7349
323.15 K, 101 kPa, x2 = 0.427 | – | 14.57
328.15 K, 100 kPa, x1 = 0.0005131 | – | 0.5096
328.15 K, 100 kPa, x1 = 0.0008362 | – | 0.5125
328.15 K, 100 kPa, x1 = 0.001227 | – | 0.5161
328.15 K, 100 kPa, x1 = 0.002025 | – | 0.5251
328.15 K, 100 kPa, x1 = 0.002516 | – | 0.5307
328.15 K, 100 kPa, x1 = 0.003482 | – | 0.5404
328.15 K, 100 kPa, x1 = 0.00456 | – | 0.5521
328.15 K, 100 kPa, x1 = 0.006613 | – | 0.5713
343.15 K, 101 kPa, x2 = 0.0023 | – | 19.63
343.15 K, 101 kPa, x2 = 0.1966 | – | 14.47
343.15 K, 101 kPa, x2 = 0.427 | – | 8.918
